Results reported in US7914769B2, “Compounds for treating human papillomavirus” (priority 2004, dated 2011).

Experiments:
E6 = E6 (Human papillomavirus type 16, UniProt P03126); experiment: E6 inhibition (IC50, assay not specified); assay type: biochemical
From the text: In some embodiments, the interaction of a compound described herein with E6 protein can be assayed in vitro, using routine techniques. In some in vitro assays, the ability of a compound described herein to inhibit the binding of E6 protein to an E6 binding protein can be tested. For example, the E6 protein can be labeled, e.g., radiolabeled, mixed with a compound described herein, and the binding of E6 protein to a binding protein, e.g., E6BP or E6AP, can be determined. Binding efficiency can be calculated as percent input bound minus background. Other in vitro assays can involve indirect measurements of the ability of a compound described herein to inhibit the binding of E6 protein to an E6 binding protein. For example, in vitro p53 degradation experiments can be performed, e.g., as described by Crook et al. (Cell, 67:547-556 (1991)). The IC50 for binding and p53 degradation for the compounds described herein can be tabulated using routine methods.
“IC50” as used herein is the concentration of a compound that produces half-maximal inhibition of protein activity, e.g., E6 activity.

HPV E6 protein = HPV E6 protein (Human papillomavirus type 16, UniProt P03126); experiment: In vitro p53 degradation assay (E6 and p53 made in rabbit reticulocyte lysate)
Sequence of HPV E6 protein (P03126 whole entry): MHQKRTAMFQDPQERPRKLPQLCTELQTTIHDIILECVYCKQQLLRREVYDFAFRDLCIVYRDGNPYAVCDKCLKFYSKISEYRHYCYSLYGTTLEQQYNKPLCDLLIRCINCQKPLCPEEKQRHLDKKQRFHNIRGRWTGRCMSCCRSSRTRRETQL

Sequence of E6 (P03126 whole entry): as above

Question: CCN(C(=O)c1cc2ccccc2cc1O)c1ccccc1 was tested. Which IC50 (E6) did it give?
Answer: 100 to 200 nM

Question: What about the IC50 (HPV E6 protein) of the same compound?
Answer: 1000 to 2000 nM
